Like-named read-outs stand apart in the source and are kept apart here.
Key:
CB1 cannabinoid receptor = target: T1, CB1 cannabinoid receptor (Rattus norvegicus, UniProt P20272); assay: CB1 receptor binding assay ([3H]CP-55,940 displacement), with and without PMSF; conditions: rat forebrain membranes
T1 construct: membranes were prepared from rat forebrain membranes; from tissue; host or cells: rat forebrain membranes
Description: It is known that the enzymatic action of anandamide amidase can be moderated or prevented in vitro by the inclusion of phenylmethanesulfonyl fluoride (PMSF). PMSF functions as a nonselective protease inhibitor. Thus the ligand binding determinations for the CB1 receptor were carried out in the presence and absence of PMSF, to obtain both CB1 receptor binding affinity and a relative measure of the analog's metabolic stability. The binding affinities (Ki) are expressed in nanomoles (nM).
For the CB1 receptor binding studies, membranes were prepared from rat forebrain membranes according to the procedure of P. R. Dodd et al, A Rapid Method for Preparing Synaptosomes: Comparison with Alternative Procedures, Brain Res., 107–118 (1981). The binding of the novel analogues to the CB1 cannabinoid receptor was assessed as described in W. A. Devane et al, Determination and Characterization of a Cannabinoid Receptor in a Rat Brain, Mol. Pharmacol., 34, 605–613 (1988) and A. Charalambous et al, 5′-azido Δ^8-THC: A Novel Photoaffinity Label for the Cannabinoid Receptor, J. Med. Chem., 35, 3076–3079 (1992) with the following changes. The above articles are incorporated by reference herein.
Membranes, previously frozen at −80° C., were thawed on ice. To the stirred suspension was added three volumes of 25 mM Tris-HCl buffer, 5 mM MgCl2 and 1 mM EDTA, pH 7.4 (TME) containing 150 μM PMSF (made fresh in 2-propanol as a 100 mM stock). The suspension was incubated at 4° C., and after 15 min a second addition of PMSF stock brought the concentration to 300 μM PMSF; then the mixture was incubated for another 15 min. At the end of the second 15-min incubation, the membranes were pelleted and washed three times with TME to remove un-reacted PMSF.
(§1) The treated membranes Were subsequently used in the binding assay described below. Approximately 30 μg of PMSF-treated membranes were incubated in silanized 96-well microtiter plate with TME containing 0.1% essentially fatty acid-free bovine serum albumin (BSA), 0.8 nM [^3H] […] The samples were filtered using Packard Filtermate 196 and Whatman GF/C filterplates and washed with wash buffer (TME) containing 0.5% BSA. Radioactivity was detected using MicroScint 20 scintillation cocktail added directly to the dried filterplates, and the filterplates were counted using a Packard Instruments Top-Count. Nonspecific binding was assessed using 100 nM CP-55,940. Data collected from three independent experiments performed with duplicate determinations was normalized between 100% and 0% specific binding for [^3H] CP-55,940, determined using buffer and 100 nM CP-55,940. The normalized data was analyzed using a 4-parameter nonlinear logistic equation to yield IC50 values.
The CB1 ligand binding determinations in the absence of PMSF were performed in a similar manner to the above test, except without the use of PMSF.

CB2 receptor = target: T2, CB2 receptor (Mus musculus, UniProt P47936); assay: CB2 receptor binding assay ([3H]CP-55,940 displacement), without PMSF; conditions: mouse spleen membranes
T2 construct: membranes were prepared from frozen mouse spleen; from tissue; host or cells: frozen mouse spleen membranes
Description: as §1
For the CB2 receptor binding studies, membranes were prepared from frozen mouse spleen essentially according to the procedure of P. R. Dodd et al, A Rapid Method for Preparing Synaptosomes: Comparison with Alternative Procedures, Brain Res., 226, 107–118 (1981). Silanized centrifuge tubes were used throughout to minimize receptor loss due to adsorption. The CB2 binding assay was conducted in the same manner as for the CB1 binding assay except the assays were conducted without PMSF. […] The binding affinities (Ki) are expressed in nanomoles (nM).

[1] = PMSF-treated, read-out: KI (CB1), with PMSF
[2] = without PMSF (anandamide amidase active), read-out: KI (CB1), without PMSF

T1 sequence (P20272 whole entry): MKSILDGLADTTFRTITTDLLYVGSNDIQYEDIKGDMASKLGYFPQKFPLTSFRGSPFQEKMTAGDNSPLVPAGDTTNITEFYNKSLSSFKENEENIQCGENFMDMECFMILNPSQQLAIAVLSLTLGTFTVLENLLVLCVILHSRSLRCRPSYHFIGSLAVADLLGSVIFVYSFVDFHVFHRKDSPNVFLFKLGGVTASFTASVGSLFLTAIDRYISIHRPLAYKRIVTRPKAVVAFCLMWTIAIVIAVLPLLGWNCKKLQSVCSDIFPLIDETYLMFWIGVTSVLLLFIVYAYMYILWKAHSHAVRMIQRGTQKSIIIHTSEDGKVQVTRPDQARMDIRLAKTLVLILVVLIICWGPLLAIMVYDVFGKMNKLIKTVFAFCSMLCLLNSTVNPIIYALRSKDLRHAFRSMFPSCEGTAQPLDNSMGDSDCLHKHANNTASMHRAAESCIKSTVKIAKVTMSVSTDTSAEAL
T2 sequence (P47936 whole entry): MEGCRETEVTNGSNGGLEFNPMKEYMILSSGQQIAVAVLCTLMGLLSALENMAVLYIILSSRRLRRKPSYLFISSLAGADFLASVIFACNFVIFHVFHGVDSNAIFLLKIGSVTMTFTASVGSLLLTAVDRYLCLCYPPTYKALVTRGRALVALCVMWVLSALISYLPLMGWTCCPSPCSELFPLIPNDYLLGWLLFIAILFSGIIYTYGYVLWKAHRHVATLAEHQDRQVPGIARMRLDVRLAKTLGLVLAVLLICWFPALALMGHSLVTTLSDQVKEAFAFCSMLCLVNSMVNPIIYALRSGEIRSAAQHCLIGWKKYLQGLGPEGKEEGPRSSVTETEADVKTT

Structure (SMILES)	Ki (CB1 cannabinoid receptor; [1]) [nM]	Ki (CB1 cannabinoid receptor; [2]) [nM]	Ki (CB2 receptor) [nM]
CCCCC/C=C\C/C=C\C/C=C\C/C=C\CCCC(=O)N[C@H](C)CN=[N+]=[N-] (racemic) [Analog 4, (R)-(+−)-Arachidonyl-1′-azido-2′-propylamide]	12.7	25.6	1230
CCCCC/C=C\C/C=C\C/C=C\C/C=C\CCCC(=O)N[C@H](C)CF [Analog 1, N-(2-Fluoro-1R-(methylethyl)arachidonylamide)]	1.18	10.1	785
CCCCC/C=C\C/C=C\C/C=C\C/C=C\CCCC(=O)N[C@@H](C)CF [Analog 2]	0.91	56.3	1340
CCCCCC=CCC=CCC=CCC=CCCCC(=O)NCCCl [Analog 5, N-(2-Chloroethyl)arachidonylamide]	5.29	3400	195
CCCCCC=CCC=CCC=CCC=CCCCC(=O)NCCCCl [Analog 6, N-(3-Chloropropyl)arachidonylamide]	25.6	387	193
C=CCNC(=O)CCC/C=C\C/C=C\C/C=C\C/C=C\CCCCC [Analog 7, N-Allylarachidonylamide]	9.91	2980	226
C#CCNC(=O)CCC/C=C\C/C=C\C/C=C\C/C=C\CCCCC [Analog 8, N-Propargylarachidonylamide]	10.8	4900	290
CCCCCC=CCC=CCC=CCC=CCCCC(=O)NCC(F)(F)F [Analog 9, N-(2,2,2-Trifluroethyl) arachidonylamide]	36.2	2380	718
CCCCC/C=C\C/C=C\C/C=C\C/C=C\CCCCNC(=O)CCO [Analog 10, N-(3-Hydroxypropionyl)arachidonylamine]	115	134	3540
CCCCC/C=C\C/C=C\C/C=C\C/C=C\CCCCNC(=O)COC(C)=O [Analog 11, N-(2-Acetoxyacetyl)arachidonylamine]	421	419	
CCCCC/C=C\C/C=C\C/C=C\C/C=C\CCCCNC(=O)CO [Analog 12]	20	23	

Source: US7161016B1, “Cannabimimetic lipid amides as useful medications” (University of Connecticut, priority 1998, dated 2007)
